For this assay, the system named is enteritis induced by trinitrobenzene sulfonic acid (TNBS). Kind of assay: Improvement of bowel swelling and mushy or watery feces in TNBS-induced enteritis. The class given is in vivo. The following applies: TNBS-induced enteritis mice, oral; extracts 100 mg/kg (B. krylovianum also 1000 mg/kg), 5-ASA 200 mg/kg; 6 cm bowel from the anus observed. From the text:
The animal model of enteritis for test is from an induction by trinitrobenzene sulfonic acid (TNBS) (Current Protocols in Immunology (2001) 15.19.1-15.19.14; Lahat G, Halperin D, Fabian I, et al. Immunomodulatory Effects of Ciprofloxacin in TNBS-Induced Colitis in Mice. Inflamm Bowel Dis 2007;13:557-565; ten Hove T, van den Blink B, Pronk I, et al. Dichotomal role of inhibition of p38 MAPK with SB 203580 in experimental colitis. Gut 2002; 50:507-512; and Bouma G, Strober W. The Immunological and Genetic Basis of Inflammatory Bowel Disease. Nature Review Immunology 2003; 3: 521-533). The bowel in the animal model of enteritis has swelled and the feces therein show a mushy or watery appearance instead of a normal semi-solid type appearance.
Specifically, BABL/cAnNCrlBltw mice, purchased from BioLASCO Taiwan (Bltw) were grouped into four groups having 6 mice to a group. In three of the groups, each mouse was injected with 1.75 mg of trinitrobenzene sulfonic acid (TNBS) (Sigma) at a 4 cm depth of the bowel from the anus. After 48 hours, the injected location was induced to form enteritis. Mice in another group were injected with a 50% ethanol aqueous solution without TNBS at a 4 cm depth of the bowel from the anus as a negative control (A). The location injected ethanol aqueous solution without TNBS was not induced to form enteritis. […]

The structures appear in SMILES notation.

As to `Nc1ccc(O)c(C(=O)O)c1` [5-ASA, 5-aminosalicylic acid], the bowel swelling result is reported as “not alleviated or eliminated”.

The values above are taken from patent publication US9060989B2, “Method for treating or relieving inflammatory bowel disease” (INDUSTRIAL TECHNOLOGY RESEARCH INSTITUTE, priority 2010, dated 2015).
